From US20070048234A1, “COMPOSITIONS AND METHODS FOR TREATING ACNE” (REVANCE THERAPEUTICS, INC., priority 2005, published 2007)
Where a name gives a salt, the structure may show the parent alone.

Columns and labels:
[1] = when topically applied; cited from earlier work
[2] = topical application; cited from earlier work
[3] = test system: propionibacterium acnes (P. Acnes); conditions: compared with other medications on the market, prescription or otherwise; cited from earlier work
acne lesion = test: topical multi-step treatment of an acne lesion (vasoconstricting composition, then anti-acne agent); type: in vivo; conditions: upon topical application of the vasoconstricting composition to the acne lesion
Text: (§1) This example provides a two step treatment for acne. The first step involves topically applying a vasoconstricting composition to the acne lesion to be treated. Suitable vasoconstricting compositions include tetrahydrozoline HCl 0.05%, naphazoline HCl 0.03%, or oxymetazoline HCl 0.025% in an aqueous base containing HPC to increase the viscosity for ease of application. Upon application of the vasoconstricting composition, the redness and swelling of the acne lesion diminishes, making the acne lesion less noticeable. After about 5 minutes, a second step is performed which involves topically applying 5% benzoyl peroxide 5% in an oil-in water moisturizer base. In this example, the benzoyl peroxide 5% is tinted to match the skin tone of the user, but this tinting is optional.
as §1, with “three-step nighttime” for “two step”, “peroxide” for “peroxide 5%”, “The acne lesion is then covered with a patch that includes silicone on” for “In this example,”, “skin-side” for “benzoyl peroxide 5% is tinted to match the skin tone”, “patch. The patch remains in place overnight and” for “user, but this tinting”, “removed in the morning.” for “optional.”
The following night, the three-step acne treatment is repeated.
This example provides a three-step acne treatment that is suitable for daytime use. The first step involves topically applying a vasoconstricting composition to the acne lesion to be treated. Suitable vasoconstricting compositions include tetrahydrozoline HCl 0.05%, naphazoline HCl 0.03%, or oxymetazoline HCl 0.025% in an aqueous base containing HPC to increase the viscosity for ease of application. […]

SMILES | share of the population that experiences skin allergies [1] | flux into the skin [2] | kills propionibacterium acnes (P. Acnes) [3] | redness and swelling of the acne lesion (acne lesion)
O=C(OOC(=O)c1ccccc1)c1ccccc1 [benzoyl peroxide] | about 10% | high | better than any other medication on the market | 
c1ccc2c(c1)CCCC2C1=NCCN1 (stereo not drawn) [tetrahydrozoline HCl 0.05%, tetrahydrozoline HCl] |  |  |  | diminishes
Cc1cc(C(C)(C)C)c(O)c(C)c1CC1=NCCN1 [oxymetazoline HCl 0.025%, oxymetazoline HCl] |  |  |  | diminishes
c1ccc2c(CC3=NCCN3)cccc2c1 [naphazoline HCl 0.03%, naphazoline HCl] |  |  |  | diminishes
